Test results: patent US12012392B2, “Sulfonamide carboxamide compounds” (Inflazome Limited, priority 2017, dated 2024)

Tested on: not listed separately
Assay: PK protocol (intravenous and oral administration)
Format: in vivo, male Sprague Dawley rats
Details: male, Sprague Dawley, plasma; rat, intravenous, dose 1 mg/kg
Description: Pharmacokinetic parameters were determined in male Sprague Dawley rats (Charles River, UK, 250-350 g; or Vital River Laboratory Animal Technology Co Ltd, Beijing, China, 7-9 weeks old). Animals were individually housed during the study and maintained under a 12 h light/dark cycle. Animals had free access to food and water except that some orally dosed animals were food deprived overnight prior to the study. For intravenous administration, compounds were formulated as a solution in water or DMSO:PBS [10:90] in 2 mL/kg dosing volume and administered via tail vein. For oral administration, compounds were formulated as a solution in water or DMSO:water [10:90] in 5 mL/kg dosing volume and administered orally.
Serial blood samples (about 120-300 μL) were taken from each animal at each of 8 time-points post dose (0.083, 0.25, 0.5, 1, 2, 4, 8 and 24 h) or at each of 12 time-points post dose (0.03, 0.1, 0.17, 0.25, 0.5, 1, 2, 4, 6, 8, 12 and 24 h) or pre-dose and at each of 9 time-points post dose (0.25, 0.5, 1, 2, 4, 6, 8, 12 and 24 h). Samples were held on ice for no longer than 30 minutes before centrifugation (10,000 rpm (8,385 g) for 3 minutes; or 5,696 rpm (3,000 g) for 15 minutes) for plasma generation. Plasma was frozen on dry ice prior to bioanalysis. PK parameters were generated from LC-MS/MS data using Dotmatics or Phoenix WinNonlin 6.3 software.

| AUC | clearance | half-life | SMILES |
| --- | --- | --- | --- |
| 611 ng·h/mL | 27.8 mL/min/kg | 1.2 h | CC(C)(O)c1coc(S(=O)(=O)NC(=O)Nc2c3c(cc4c2CCC4)CCC3)c1 [MCC950, reference compound] |
| 2070 ng·h/mL | 8.1 mL/min/kg | 14.2 h | CN(CCO)Cc1cc(S(=O)(=O)NC(=O)Nc2c3c(cc4c2CCC4)CCC3)nn1C [Example 77, N-((1,2,3,5,6,7-Hexahydro-s-indacen-4-yl)carbamoyl)-5-(((2-hydroxyethyl)(methyl)amino)methyl)-1-methyl-1H-pyrazole-3-sulfonamide] |

Same assay, conditions: male, Sprague Dawley, plasma; rat, intravenous, dose 1 mg/kg; read-out: Vdss

| Vd | SMILES |
| --- | --- |
| 0.53 L/kg | CC(C)(O)c1coc(S(=O)(=O)NC(=O)Nc2c3c(cc4c2CCC4)CCC3)c1 [MCC950, reference compound] |
| 1.9 L/kg | CN(CCO)Cc1cc(S(=O)(=O)NC(=O)Nc2c3c(cc4c2CCC4)CCC3)nn1C [Example 77, N-((1,2,3,5,6,7-Hexahydro-s-indacen-4-yl)carbamoyl)-5-(((2-hydroxyethyl)(methyl)amino)methyl)-1-methyl-1H-pyrazole-3-sulfonamide] |

Same assay, conditions: male, Sprague Dawley, plasma; rat, intravenous, dose 2.41 mg/kg

| AUC | clearance | half-life | SMILES |
| --- | --- | --- | --- |
| 787 ng·h/mL | 114 mL/min/kg | 0.3 h | CN(CCO)C(=O)c1cc(S(=O)(=O)NC(=O)Nc2c3c(cc4c2CCC4)CCC3)nn1C [Example 59, 3-(N-((1,2,3,5,6,7-Hexahydro-s-indacen-4-yl)carbamoyl)sulfamoyl)-N-(2-hydroxyethyl)-N,1-dimethyl-1H-pyrazole-5-carboxamide] |

Same assay, conditions: male, Sprague Dawley, plasma; rat, intravenous, dose 2.41 mg/kg; read-out: Vdss

| Vd | SMILES |
| --- | --- |
| 2.37 L/kg | CN(CCO)C(=O)c1cc(S(=O)(=O)NC(=O)Nc2c3c(cc4c2CCC4)CCC3)nn1C [Example 59, 3-(N-((1,2,3,5,6,7-Hexahydro-s-indacen-4-yl)carbamoyl)sulfamoyl)-N-(2-hydroxyethyl)-N,1-dimethyl-1H-pyrazole-5-carboxamide] |

Target: NLRP3 (Homo sapiens, UniProt Q96P20)
Sequence (Q96P20 whole entry): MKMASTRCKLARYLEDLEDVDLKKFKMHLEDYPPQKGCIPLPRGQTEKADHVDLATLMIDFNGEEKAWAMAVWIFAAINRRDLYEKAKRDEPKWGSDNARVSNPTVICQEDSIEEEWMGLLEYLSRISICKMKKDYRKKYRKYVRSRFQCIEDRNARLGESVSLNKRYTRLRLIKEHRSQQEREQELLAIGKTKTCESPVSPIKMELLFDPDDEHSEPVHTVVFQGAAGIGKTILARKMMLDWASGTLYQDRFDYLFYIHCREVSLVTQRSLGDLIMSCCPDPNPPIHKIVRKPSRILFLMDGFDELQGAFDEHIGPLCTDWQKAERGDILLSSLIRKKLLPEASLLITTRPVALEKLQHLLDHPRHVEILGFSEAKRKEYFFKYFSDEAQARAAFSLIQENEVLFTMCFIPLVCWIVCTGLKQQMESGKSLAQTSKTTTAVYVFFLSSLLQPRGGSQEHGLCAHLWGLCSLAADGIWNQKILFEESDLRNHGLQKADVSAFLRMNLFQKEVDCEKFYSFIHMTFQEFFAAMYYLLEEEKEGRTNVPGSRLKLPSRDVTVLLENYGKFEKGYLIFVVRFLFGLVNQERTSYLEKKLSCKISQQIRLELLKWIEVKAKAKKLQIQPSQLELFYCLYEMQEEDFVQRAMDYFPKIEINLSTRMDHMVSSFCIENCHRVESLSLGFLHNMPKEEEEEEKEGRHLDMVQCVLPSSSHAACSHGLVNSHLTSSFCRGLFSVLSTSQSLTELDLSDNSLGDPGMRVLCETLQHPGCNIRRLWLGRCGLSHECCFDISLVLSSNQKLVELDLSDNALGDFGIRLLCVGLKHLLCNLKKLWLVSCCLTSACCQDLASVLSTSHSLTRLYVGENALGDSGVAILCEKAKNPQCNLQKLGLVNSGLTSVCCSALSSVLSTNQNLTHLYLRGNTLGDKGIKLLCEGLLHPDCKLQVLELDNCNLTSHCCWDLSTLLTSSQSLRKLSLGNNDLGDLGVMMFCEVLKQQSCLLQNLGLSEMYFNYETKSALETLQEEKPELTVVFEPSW
Assay: THP-1 cells pyroptosis assay
Format: cell-based
Set-up: Seed THP-1 cells (25,000 cells/well) containing 1.0 μg/ml LPS; host or cells: THP-1 cells, LPS-primed, nigericin-stimulated
Details: LPS 1 μg/ml, nigericin 5 μM, resazurin read-out
Description: THP-1 cells (ATCC #TIB-202) were grown in RPMI containing L-glutamine (Gibco #11835) supplemented with 1 mM sodium pyruvate (Sigma #S8636) and penicillin (100 units/ml)/streptomycin (0.1 mg/ml) (Sigma #P4333) in 10% Fetal Bovine Serum (FBS) (Sigma #F0804). The cells were routinely passaged and grown to confluency (˜10^6 cells/ml). On the day of the experiment, THP-1 cells were harvested and resuspended into RPMI medium (without FBS). The cells were then counted and viability (>90%) checked by Trypan blue (Sigma #T8154). Appropriate dilutions were made to give a concentration of 625,000 cells/ml. To this diluted cell solution was added LPS (Sigma #L4524) to give a 1 μg/ml Final Assay Concentration (FAC). 40 μl of the final preparation was aliquoted into each well of a 96-well plate. The plate thus prepared was used for compound screening.
The following method step-by-step assay was followed for compound screening. • 1. Seed THP-1 cells (25,000 cells/well) containing 1.0 μg/ml LPS in 40 μl of RPMI medium (without FBS) in 96-well, black walled, clear bottom cell culture plates coated with poly-D-lysine (VWR #734-0317) • 2. Add 5 μl compound (8 points half-log dilution, with 10 μM top dose) or vehicle (DMSO 0.1% FAC) to the appropriate wells • 3. Incubate for 3 hrs at 37° C. and 5% CO2 • 4. Add 5 μl nigericin (Sigma #N7143) (FAC 5 μM) to all wells • 5. Incubate for 1 hr at 37° C. and 5% CO2 • 6. At the end of the incubation period, spin plates at 300×g for 3 mins and remove supernatant • 7. Then add 50 μl of resazurin (Sigma #R7017) (FAC 100 μM resazurin in RPMI medium without FBS) and incubate plates for a further 1-2 hrs at 37° C. and 5% CO2 • 8. Plates were read in an Envision reader at Ex 560 nm and Em 590 nm • 9. IC50 data is fitted to a non-linear regression equation (log inhibitor vs response-variable slope 4-parameters) 96-Well Plate Map

| SMILES | IC50 |
| --- | --- |
| CC(C)c1cccc(C(C)C)c1NC(=O)NS(=O)(=O)c1cc(C(=O)N2CCOCC2)n(C)n1 [Example 67, N-((2,6-Diisopropylphenyl)carbamoyl)-1-methyl-5-(morpholine-4-carbonyl)-1H-pyrazole-3-sulfonamide] | 640 to 2560 nM |
| COCCN(CCOC)C(=O)c1cc(S(=O)(=O)NC(=O)Nc2c(C(C)C)cccc2C(C)C)nn1C [Example 69, 3-(N-((2,6-Diisopropylphenyl)carbamoyl)sulfamoyl)-N,N-bis(2-methoxyethyl)-1-methyl-1H-pyrazole-5-carboxamide] | 2560 to 10000 nM |
| Cn1nc(S(=O)(=O)NC(=O)Nc2c3c(cc4c2CCC4)CCC3)cc1C(=O)N1CCOCC1 [Example 74, N-((1,2,3,5,6,7-Hexahydro-s-indacen-4-yl)carbamoyl)-1-methyl-5-(morpholine-4-carbonyl)-1H-pyrazole-3-sulfonamide] | 640 to 2560 nM |
| O=C(Nc1c2c(cc3c1CCC3)CCC2)NS(=O)(=O)c1cnn(C2CCOCC2)c1 [Example 99] | 2560 to 10000 nM |
| CN(C(=O)c1cc(S(=O)(=O)NC(=O)Nc2c3c(cc4c2CCC4)CCC3)nn1C)C1CCOCC1 [Example 60, 3-(N-((1,2,3,5,6,7-Hexahydro-s-indacen-4-yl)carbamoyl)sulfamoyl)-N,1-dimethyl-N-(tetrahydro-2H-pyran-4-yl)-1H-pyrazole-5-carboxamide] | 2560 to 10000 nM |
| COCCn1cc(S(=O)(=O)NC(=O)Nc2c3c(cc4c2CCC4)CCC3)cn1 [Example 101] | 640 to 2560 nM |
| CN(CC(O)CO)C(=O)c1cc(S(=O)(=O)NC(=O)Nc2c3c(cc4c2CCC4)CCC3)nn1C (stereo not drawn) [Example 65, N-(2,3-Dihydroxypropyl)-3-(N-((1,2,3,5,6,7-hexahydro-s-indacen-4-yl)carbamoyl)sulfamoyl)-N,1-dimethyl-1H-pyrazole-5-carboxamide] | 640 to 2560 nM |
| O=C(Nc1c2c(cc3c1CCC3)CCC2)NS(=O)(=O)c1cnn(C2CCOC2)c1 (stereo not drawn) [Example 100] | 640 to 2560 nM |
| CC(C)(O)Cn1cc(S(=O)(=O)NC(=O)Nc2c3c(cc4c2CCC4)CCC3)cn1 [Example 88, N-((1,2,3,5,6,7-Hexahydro-s-indacen-4-yl)carbamoyl)-1-(2-hydroxy-2-methylpropyl)-1H-pyrazole-4-sulfonamide] | 640 to 2560 nM |
| COC1CCN(C(=O)c2cc(S(=O)(=O)NC(=O)Nc3c4c(cc5c3CCC5)CCC4)nn2C)C1 (stereo not drawn) [Example 71, N-((1,2,3,5,6,7-Hexahydro-s-indacen-4-yl)carbamoyl)-5-(3-methoxypyrrolidine-1-carbonyl)-1-methyl-1H-pyrazole-3-sulfonamide] | 2560 to 10000 nM |
| Cn1nc(S(=O)(=O)NC(=O)Nc2c3c(cc4c2CCC4)CCC3)cc1C(=O)NCCO [Example 84, 3-(N-((1,2,3,5,6,7-Hexahydro-s-indacen-4-yl)carbamoyl)sulfamoyl)-N-(2-hydroxyethyl)-1-methyl-1H-pyrazole-5-carboxamide] | 2560 to 10000 nM |
| COCCNC(=O)c1cc(S(=O)(=O)NC(=O)Nc2c3c(cc4c2CCC4)CCC3)nn1C [Example 85, 3-(N-((1,2,3,5,6,7-Hexahydro-s-indacen-4-yl)carbamoyl)sulfamoyl)-N-(2-methoxyethyl)-1-methyl-1H-pyrazole-5-carboxamide] | 2560 to 10000 nM |
| COCCN(C)C(=O)c1cc(S(=O)(=O)NC(=O)Nc2c(C(C)C)cccc2C(C)C)nn1C [Example 68, 3-(N-((2,6-Diisopropylphenyl)carbamoyl)sulfamoyl)-N-(2-methoxyethyl)-N,1-dimethyl-1H-pyrazole-5-carboxamide] | 2560 to 10000 nM |
| CN(C(=O)c1cc(S(=O)(=O)NC(=O)Nc2c3c(cc4c2CCC4)CCC3)nn1C)C1COC1 [Example 63, 3-(N-((1,2,3,5,6,7-Hexahydro-s-indacen-4-yl)carbamoyl)sulfamoyl)-N,1-dimethyl-N-(oxetan-3-yl)-1H-pyrazole-5-carboxamide] | 640 to 2560 nM |
| Cn1nc(S(=O)(=O)NC(=O)Nc2c3c(cc4c2CCC4)CCC3)cc1C(=O)N1CCC(O)CC1 [Example 70, N-((1,2,3,5,6,7-Hexahydro-s-indacen-4-yl)carbamoyl)-5-(4-hydroxypiperidine-1-carbonyl)-1-methyl-1H-pyrazole-3-sulfonamide] | 2560 to 10000 nM |
| CC(C)c1cccc(C(C)C)c1NC(=O)NS(=O)(=O)c1cc(C(=O)N(C)CCO)n(C)n1 [Example 83, 3-(N-((2,6-Diisopropylphenyl)carbamoyl)sulfamoyl)-N-(2-hydroxyethyl)-N,1-dimethyl-1H-pyrazole-5-carboxamide] | 640 to 2560 nM |

More lines, now with the values ahead:

| IC50 | SMILES |
| --- | --- |
| 640 to 2560 nM | C[C@@H](O)Cn1cc(S(=O)(=O)NC(=O)Nc2c3c(cc4c2CCC4)CCC3)cn1 [Example 89, (R)—N-((1,2,3,5,6,7-Hexahydro-s-indacen-4-yl)carbamoyl)-1-(2-hydroxypropyl)-1H-pyrazole-4-sulfonamide] |
| 160 to 640 nM | CCn1nc(S(=O)(=O)NC(=O)Nc2c(C(C)C)cc(F)cc2C(C)C)cc1C1(O)COC1 [Example 44, 1-Ethyl-N-((4-fluoro-2,6-diisopropylphenyl)carbamoyl)-5-(3-hydroxyoxetan-3-yl)-1H-pyrazole-3-sulfonamide] |
| 640 to 2560 nM | CC(C)c1cc(F)cc(C(C)C)c1NC(=O)NS(=O)(=O)c1cc(C2(O)CCOCC2)n(C)n1 [Example 54, N-((4-Fluoro-2,6-diisopropylphenyl)carbamoyl)-5-(4-hydroxytetrahydro-2H-pyran-4-yl)-1-methyl-1H-pyrazole-3-sulfonamide] |
| 640 to 2560 nM | CC(C)c1cc(F)cc(C(C)C)c1NC(=O)NS(=O)(=O)c1cc(C2(O)COC2)n(C(C)C)n1 [Example 43, N-((4-Fluoro-2,6-diisopropylphenyl)carbamoyl)-5-(3-hydroxyoxetan-3-yl)-1-isopropyl-1H-pyrazole-3-sulfonamide] |
| 640 to 2560 nM | CC(C)c1cc(F)cc(C(C)C)c1NC(=O)NS(=O)(=O)c1ccn(C[C@@H](C)O)n1 [Example 27, (R)—N-((4-Fluoro-2,6-diisopropylphenyl)carbamoyl)-1-(2-hydroxypropyl)-1H-pyrazole-3-sulfonamide] |
| 160 to 640 nM | O=C(Nc1c2c(cc3c1CCC3)CCC2)NS(=O)(=O)c1ccn(C2COCC2O)n1 (stereo not drawn) [Example 105] |
| 160 to 640 nM | COC1(c2cc(S(=O)(=O)NC(=O)Nc3c(C(C)C)cc(F)cc3C(C)C)nn2C)COC1 [Example 52, N-((4-Fluoro-2,6-diisopropylphenyl)carbamoyl)-5-(3-methoxyoxetan-3-yl)-1-methyl-1H-pyrazole-3-sulfonamide] |
| 40 to 160 nM | CN(CCO)C(=O)c1cc(S(=O)(=O)NC(=O)Nc2c3c(cc4c2CCC4)CCC3)nn1C [Example 59, 3-(N-((1,2,3,5,6,7-Hexahydro-s-indacen-4-yl)carbamoyl)sulfamoyl)-N-(2-hydroxyethyl)-N,1-dimethyl-1H-pyrazole-5-carboxamide] |
